Biological target: T1, Carbonyl reductase 1 (CBR1) (Homo sapiens, UniProt P16152)
T1 construct: recombinant human CBR1
T1 sequence (P16152 2-277): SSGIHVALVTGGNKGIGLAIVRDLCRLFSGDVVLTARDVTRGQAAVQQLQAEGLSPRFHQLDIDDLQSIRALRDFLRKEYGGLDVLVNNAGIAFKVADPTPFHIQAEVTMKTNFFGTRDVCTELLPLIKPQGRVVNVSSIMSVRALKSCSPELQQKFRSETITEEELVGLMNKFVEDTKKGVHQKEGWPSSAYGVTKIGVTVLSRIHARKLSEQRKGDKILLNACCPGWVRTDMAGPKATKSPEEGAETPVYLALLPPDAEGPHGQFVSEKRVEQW
Assay: conversion by recombinant enzyme, LC-MS/MS
Type: biochemical

How did the “conversion by recombinant enzyme, LC-MS/MS” value turn out when `C[C@]12CCC(=O)C=C1CC[C@@H]1[C@@H]2[C@@H](O)C[C@@]2(C)[C@H]1CC[C@]2(O)C(=O)CO` [F, cortisol] was run?
Its value is 1.2 ± 0.4 ng/mg CBR1 protein per minute.

— PMC5587574, “Carbonyl reductase 1 catalyzes 20β-reduction of glucocorticoids, modulating receptor activation and metabolic complications of obesity” (Scientific Reports, 2017)
